{"source": "paper PMC3207004", "about": "(Clinical cancer research : an official journal of the …, 2011)", "key": {"[1]": {"system": "cultured human retinal pigment epithelial cells (RPE)", "settings": "cited from earlier work"}, "NSCLC": {"system": "NSCLC", "settings": "cited from earlier work"}, "[2]": {"test": "Plasma pharmacokinetics of PF-04928473 after oral PF-04929113", "type": "in vivo, human"}}}
{"smiles": "C=CCNC1=C2C[C@@H](C)C[C@H](OC)[C@H](O)[C@@H](C)/C=C(\\C)[C@H](OC(N)=O)[C@@H](OC)/C=C\\C=C(/C)C(=O)NC(=CC1=O)C2=O", "note": "[17-AAG]", "values": [{"measurement": "Effect on cultured human retinal pigment epithelial cells", "setting": "[1]", "result": "cytostaticity and cytotoxicity"}]}
{"smiles": "C=CCNc1c(O)cc2c(O)c1C[C@@H](C)C[C@H](OC)[C@H](O)[C@@H](C)/C=C(\\C)[C@H](OC(N)=O)[C@@H](OC)/C=C\\C=C(/C)C(=O)N2", "note": "[IPI-504]", "values": [{"measurement": "Objective response", "setting": "NSCLC; 76 patients with NSCLC", "result": 7, "unit": "%"}, {"measurement": "Objective response, number of patients", "setting": "NSCLC; 76 patients with NSCLC", "result": 5, "unit": "patients"}, {"measurement": "Response among 3 patients with ALK rearrangements", "setting": "NSCLC", "result": "2 PRs and one prolonged SD"}]}
{"smiles": "CC1(C)CC(=O)c2c(C(F)(F)F)nn(-c3ccc(C(N)=O)c(N[C@H]4CC[C@H](O)CC4)c3)c2C1", "note": "[PF-04928473]", "values": [{"measurement": "Time span in which active drug was detectable in plasma", "setting": "[2]; after oral PF-04929113", "result": "detectable at 20 minutes through 48 hours"}, {"measurement": "Clearance (CL/Fm)", "setting": "[2]; high value", "result": "hepatic and extra-hepatic clearance"}, {"measurement": "Volume of distribution (Vz/Fm)", "setting": "[2]; high value", "result": "extensive tissue binding"}, {"measurement": "half-life", "setting": "[2]; human, plasma, oral", "result": "8 to 15", "unit": "h"}, {"measurement": "Change of half-life across dose levels", "setting": "[2]; in vivo", "result": "doesn’t appear to change across different dose levels"}, {"measurement": "Dose linearity of pharmacokinetics", "setting": "[2]; in vivo", "result": "almost linear PK"}, {"measurement": "Dose linearity of pharmacokinetics", "setting": "[2]; in vivo, listed as PF 04928473", "result": "almost linear pharmacokinetics"}, {"measurement": "Absorption following oral administration", "setting": "[2]; patients", "result": "rapid absorption"}, {"measurement": "Drug accumulation after multiple dosing", "setting": "[2]; twice weekly", "result": "no drug accumulation"}]}
{"smiles": "COC1=C2C[C@@H](C)C[C@H](OC)[C@H](O)[C@@H](C)/C=C(\\C)[C@H](OC(N)=O)[C@@H](OC)/C=C\\C=C(/C)C(=O)NC(=CC1=O)C2=O", "note": "[geldanamycin]", "values": [{"measurement": "Effect on cultured human retinal pigment epithelial cells", "setting": "[1]", "result": "cytostaticity and cytotoxicity"}]}
